Data from PubChem BioAssay AID248 (DTP/NCI, 2004).
Values joined by “and” are separate entries in the source; they are usually repeats but may differ in a detail not shown here. Identical values can stand only once. Inconclusive results and toxic doses are left out. Rule as the data show it: active = T/C of 150% or more; inactive = T/C below 125%.

System: L1210 leukemia ip in BDF1 mice, survival T/C
Assay: NCI In Vivo Anticancer Drug Screen. Data for tumor model L1210 Leukemia (intraperitoneal) in B6D2F1 (BDF1) mice
Conditions: endpoint: mean survival time, higher = longer survival
In short: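 In this screen, tumor-bearing mice given compound are compared to those given vehicle, and their survival values are reported as a treated-to-control quotient.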

[1] = dose: 100.0 mg/kg/injection, schedule: Q04DX003 (ip), vehicle: saline
[2] = dose: 200.0 mg/kg/injection, schedule: Q04DX003 (ip), vehicle: saline
[3] = dose: 400.0 mg/kg/injection, schedule: Q04DX003 (ip), vehicle: saline
[4] = dose: 100.0 mg/kg/injection, schedule: Q01DX001 (ip), vehicle: carboxymethylcellulose (CMC)
[5] = dose: 200.0 mg/kg/injection, schedule: Q01DX001 (ip), vehicle: carboxymethylcellulose (CMC)
[6] = dose: 400.0 mg/kg/injection, schedule: Q01DX001 (ip), vehicle: carboxymethylcellulose (CMC)
[7] = dose: 100.0 mg/kg/injection, schedule: Q01DX009 (ip), vehicle: Klucel (hydroxypropylcellulose) (HPC)
[8] = dose: 200.0 mg/kg/injection, schedule: Q01DX009 (ip), vehicle: Klucel (hydroxypropylcellulose) (HPC)
[9] = dose: 50.0 mg/kg/injection, schedule: Q01DX001 (ip), vehicle: saline
[10] = dose: 100.0 mg/kg/injection, schedule: Q01DX001 (ip), vehicle: saline
[11] = dose: 200.0 mg/kg/injection, schedule: Q01DX001 (ip), vehicle: saline
[12] = dose: 50.0 mg/kg/injection, schedule: Q01DX001 (ip), vehicle: carboxymethylcellulose (CMC)

Measured: T/C

CSc1cc(C)c(OC(=O)Nc2cc(C)ccc2C)c(C)c1
inactive: dose: 25.0 mg/kg/injection, schedule: Q01DX009 (ip), vehicle: saline 98 % of control | dose: 50.0 mg/kg/injection, schedule: Q01DX009 (ip), vehicle: saline 93 % of control | dose: 100.0 mg/kg/injection, schedule: Q01DX009 (ip), vehicle: saline 91 % of control | [1] 107 % of control | dose: 200.0 mg/kg/injection, schedule: Q01DX009 (ip), vehicle: saline 91 % of control | [2] 98 % of control | dose: 400.0 mg/kg/injection, schedule: Q01DX009 (ip), vehicle: saline 106 % of control | [3] 95 % of control

O=C1c2ccccc2-c2cc(Br)c(NC(=O)C(Cl)Cl)cc21
inactive: [4] 115 % of control | [5] 98 % of control | [6] 98 % of control

c1ccc(P(=NC2CCCCCCC2)(c2ccccc2)c2ccccc2)cc1
inactive: dose: 100.0 mg/kg/injection, schedule: Q01DX001 (ip), vehicle: saline with Tween-80 96 % of control | dose: 200.0 mg/kg/injection, schedule: Q01DX001 (ip), vehicle: saline with Tween-80 98 % of control | dose: 400.0 mg/kg/injection, schedule: Q01DX001 (ip), vehicle: saline with Tween-80 105 % of control

CCOC(=O)/C(Cc1n[n+]([O-])ccc1Cl)=N\N
inactive: dose: 43.75 mg/kg/injection, schedule: Q04DX002 (ip), vehicle: Klucel (hydroxypropylcellulose) (HPC) 116 % of control | dose: 87.5 mg/kg/injection, schedule: Q04DX002 (ip), vehicle: Klucel (hydroxypropylcellulose) (HPC) 101 % of control | dose: 175.0 mg/kg/injection, schedule: Q04DX002 (ip), vehicle: Klucel (hydroxypropylcellulose) (HPC) 96 % of control

CCC1C(CC(=O)O)=C(C)NC(C)=C1CC(=O)O
inactive: [7] 109 % of control | [8] 90 % of control

O=C(Nc1ccc(C2=NCCN2)cc1)c1cccc(C(=O)Nc2ccc(C3=NCCN3)cc2)n1
inactive: dose: 15.0 mg/kg/injection, schedule: Q01DX Z (ip), vehicle: methylcellulose (MC) 96 % of control | dose: 30.0 mg/kg/injection, schedule: Q01DX Z (ip), vehicle: methylcellulose (MC) 93 % of control | dose: 60.0 mg/kg/injection, schedule: Q01DX Z (ip), vehicle: methylcellulose (MC) 104 % of control and 111 % of control | dose: 240.0 mg/kg/injection, schedule: Q01DX Z (ip), vehicle: methylcellulose (MC) 120 % of control | dose: 480.0 mg/kg/injection, schedule: Q01DX Z (ip), vehicle: methylcellulose (MC) 95 % of control

C[N+](C)(C)CCOc1ccc(Cl)cc1
inactive: dose: 12.0 mg/kg/injection, schedule: Q04DX003 (ip), vehicle: Klucel (hydroxypropylcellulose) (HPC) 91 % of control | dose: 25.0 mg/kg/injection, schedule: Q01DX009 (ip), vehicle: Klucel (hydroxypropylcellulose) (HPC) 103 % of control | dose: 25.0 mg/kg/injection, schedule: Q04DX003 (ip), vehicle: Klucel (hydroxypropylcellulose) (HPC) 93 % of control | dose: 50.0 mg/kg/injection, schedule: Q01DX009 (ip), vehicle: Klucel (hydroxypropylcellulose) (HPC) 106 % of control | dose: 50.0 mg/kg/injection, schedule: Q04DX003 (ip), vehicle: Klucel (hydroxypropylcellulose) (HPC) 96 % of control | [7] 98 % of control

COC(=O)C12COC(=O)C1COC2=O (stereo unspecified)
inactive: [1] 100 % of control | [2] 98 % of control | [3] 109 % of control

CSc1c(Cl)c(C(Cl)(Cl)Cl)nc2ccccc12
inactive: dose: 12.5 mg/kg/injection, schedule: Q01DX009 (ip), vehicle: saline with Tween-80 93 % of control | dose: 25.0 mg/kg/injection, schedule: Q01DX009 (ip), vehicle: saline with Tween-80 93 % of control | dose: 50.0 mg/kg/injection, schedule: Q01DX009 (ip), vehicle: saline with Tween-80 103 % of control and 104 % of control

CCOc1cccc(Cc2c[nH]c(=O)n(C)c2=O)c1
inactive: dose: 100.0 mg/kg/injection, schedule: Q04DX003 (ip), vehicle: Klucel (hydroxypropylcellulose) (HPC) 93 % of control | dose: 200.0 mg/kg/injection, schedule: Q04DX003 (ip), vehicle: Klucel (hydroxypropylcellulose) (HPC) 97 % of control | dose: 400.0 mg/kg/injection, schedule: Q04DX003 (ip), vehicle: Klucel (hydroxypropylcellulose) (HPC) 98 % of control

CC#CCCC(=O)OCCC
inactive: dose: 100.0 mg/kg/injection, schedule: Q04DX002 (ip), vehicle: saline with Tween-80 121 % of control | dose: 200.0 mg/kg/injection, schedule: Q04DX002 (ip), vehicle: saline with Tween-80 93 % of control | dose: 400.0 mg/kg/injection, schedule: Q04DX002 (ip), vehicle: saline with Tween-80 108 % of control

S=C([S][Sn]([S]C(=S)N(c1ccccc1)c1ccccc1)([c]1ccccc1)[c]1ccccc1)N(c1ccccc1)c1ccccc1
inactive: dose: 100.0 mg/kg/injection, schedule: Q01DX001 (ip), vehicle: steriod suspending solution 93 % of control | dose: 200.0 mg/kg/injection, schedule: Q01DX001 (ip), vehicle: steriod suspending solution 112 % of control

O=C(O)c1cc(O)c(Br)c(O)c1
inactive: dose: 75.0 mg/kg/injection, schedule: Q01DX009 (ip), vehicle: other 93 % of control | [1] 106 % of control | dose: 150.0 mg/kg/injection, schedule: Q01DX009 (ip), vehicle: other 96 % of control | [2] 101 % of control | [3] 95 % of control

CCC(C)NNCCO (stereo unspecified)
inactive: [9] 97 % of control | [10] 103 % of control | [11] 100 % of control

COc1ccc(CCBr)cc1
inactive: [7] 97 % of control | [8] 97 % of control | dose: 400.0 mg/kg/injection, schedule: Q01DX009 (ip), vehicle: Klucel (hydroxypropylcellulose) (HPC) 95 % of control

N#CCCP(=S)(CCC#N)CCC#N
inactive: dose: 100.0 mg/kg/injection, schedule: Q04DX002 (ip), vehicle: Klucel (hydroxypropylcellulose) (HPC) 94 % of control | dose: 200.0 mg/kg/injection, schedule: Q04DX002 (ip), vehicle: Klucel (hydroxypropylcellulose) (HPC) 112 % of control | dose: 400.0 mg/kg/injection, schedule: Q04DX002 (ip), vehicle: Klucel (hydroxypropylcellulose) (HPC) 105 % of control

OC1c2ccccc2C(O)C2C3C=CC(C3)C12 (stereo unspecified)
inactive: [12] 87 % of control | [4] 97 % of control | [5] 100 % of control | [6] 97 % of control

O=C1COC2CCCCC2O1 (stereo unspecified)
inactive: [4] 108 % of control | [5] 101 % of control | [6] 106 % of control

O=C1C2Nc3ccccc3CC2CN1Cc1ccccc1 (stereo unspecified)
inactive: dose: 10.0 mg/kg/injection, schedule: Q04DX003 (ip), vehicle: alcohol 106 % of control | dose: 20.0 mg/kg/injection, schedule: Q04DX003 (ip), vehicle: alcohol 99 % of control | dose: 40.0 mg/kg/injection, schedule: Q04DX003 (ip), vehicle: alcohol 99 % of control | dose: 80.0 mg/kg/injection, schedule: Q04DX003 (ip), vehicle: alcohol 97 % of control | dose: 160.0 mg/kg/injection, schedule: Q04DX003 (ip), vehicle: alcohol 100 % of control

Nc1nc(N)nc(CCCCCCc2nc(N)nc(N)n2)n1
inactive: [12] 88 % of control | [4] 88 % of control | [5] 98 % of control

CC1(C)C(C)(C)C12C=CC=C2
inactive: dose: 25.0 mg/kg/injection, schedule: Q01DX001 (ip), vehicle: saline 104 % of control | [9] 102 % of control | [10] 101 % of control

N=C(N)SCc1ccc([N+](=O)[O-])cc1
inactive: [10] 103 % of control | [11] 97 % of control

CNC(=O)c1ccc(C(=O)NC)cc1
inactive: dose: 100.0 mg/kg/injection, schedule: Q04DX003 (ip), vehicle: saline with Tween-80 94 % of control | dose: 200.0 mg/kg/injection, schedule: Q04DX003 (ip), vehicle: saline with Tween-80 103 % of control | dose: 400.0 mg/kg/injection, schedule: Q04DX003 (ip), vehicle: saline with Tween-80 100 % of control
